# Test results published in US7345020B2, “Mimetics of CD4 that inhibit immune response” (Thomas Jefferson University, priority 1995, dated 2008).
# “Also recorded” adds a separate entry of the source. Positions of bridges follow the written chain, without caps; N, C: chain ends. Residues, ends and D or L forms follow the SMILES beside them.
# Legend:
# [1] = test system: experimental allergic encephalomyelitis (EAE); assay: EAE inhibition in vivo (SJL EAE model); design: species or system mouse; settings: for maximum mean EAE severity grade: SJL mice, 0.5 mg i.v. on day 12, 0-5 scale, untreated control maximum 2.0
# Protocol: The C—C′ loop peptides were initially tested for efficacy in the SJL EAE model. In untreated animals, a high incidence of disease was observed 15-22 days after two s.c. inoculations of 1 mg of crude murine spinal cord homogenate in complete Freund's adjuvant. The severity of the disease was scored daily using the established 0-5 scale that describes the level of ascending paresis, Korngold, R., et al., 1986, Immunogenetics 24:309-315. The level of the mean EAE severity grade of mice for the untreated control group reached a maximum of 2.0. […] Also shown are the results of groups of mice that received the rD-mPGPtide, a mimic of residues 86-104 of murine homolog of CD4, which was described in Jameson et al. 1994, Nature 368:744-746.
# [2] = test system: human peripheral blood lymphocytes (responder cell alloreactive proliferation); settings: for activity of cyclic CNSNQIC compared with this linear peptide in human MLR: linear peptides derived from the same C—C′ region
# Protocol: For this assay, fresh peripheral blood lymphocytes from two different donors are co-cultured; the cells of one donor were irradiated and served as stimulators. Proliferation of these activated T cells was measured by measuring the incorporation of ^3H-thymidine at various timepoints.
# For human MLR, 50 ml of whole blood was collected into anti-coagulant (ACD, acid citrate dextrose) containing tubes. In 50 ml conical tubes, 20 ml of blood was layered over 20 ml Ficoll 1077 (Sigma Chemical Co., St. Louis, Mo.) and centrifuged at 2000 rpm for 35-40 min at 15-20° C. Buffy coats and serum were collected in 3× volume of PBS centrifuged at 1500 rpm for 15 min at 15-20° C. Supernatants were discarded, cells were washed 2× in 50 ml PBS and resuspended in RPMI supplemented with 10% heat-inactivated (56°, 30 min) human serum (cat# H4522, Sigma), 50 IU/ml pen/strep and 2 mM (1% of 200 mM stock) L-glutamine (both from BioWhitaker).
# In a 96-well flat bottom plate 1×10^5 responders were plated with 2×10^5 irradiated (3000 rad) simulators/well (added in 100 μl each), and incubated for 6, 7 or 8 days at 37° C., 7% CO2. Peptide analogues were added to quadruplicate wells, at a concentration of 100 μM (5 mg/ml stock) or titrations thereof, immediately after cells were plated. For radiolabelling, the cells were incubated with 1 μCi [^3H] TdR/well (25 μl) (diluted from 1 mCi/ml stock, Amersham) for the final 6 hours of incubation. Cells were harvested using a fiberfilter cell harvester (e.g., Harvester 96, Tomtec) and counted in a Beta Counter of Beta plate reader (1205 BS Betaplate Liquid Scintillation Counter, Wallac) with scintillation fluid.
# [3] = test system: murine spleen responder cells with irradiated C3H stimulator cells; assay: Murine mixed lymphocyte reaction; format: cell-based, mouse; settings: in vitro
# Protocol: Mice were sacrificed and spleens aseptically removed. Cell suspensions were made by gently pressing spleens through nylon mesh, washing cells with RPMI 1640 and hypotonic lysis of red blood cells. After 3 washes in RPMI 1640, cells were resuspended in complete medium (RPMI 1640, 10% heat inactivated FCS, 2 mM L-glutamine, penicillin/streptomycin) and 5×10^5 responder cells incubated with 1×10^5 stimulator cells (C3H spleen cells, 2000 rad irradiated) in triplicate in round bottom 96 well plates (final volume 200 μl), and incubated with the indicated concentration of peptide (0.01, 0.1, 1, 10, 100 and 1000 μM peptide) for 5 days at 37° C., 5% CO2. 1 μCi/WELL OF [^3H] TdR was added 12 hours before thymidine incorporation was measured. Labelled DNA from cells was harvested onto glass fiber filters with a PHD cell harvester (Cambridge, Mass.), and CPM determined by liquid scintillation counting with the use of a 1209 Rackbeta (LKB, Piscataway, N.J.).
Molecule,maximum mean EAE severity grade [1],"effect on EAE in mice, in words [1]",activity of cyclic CNSNQIC compared with this linear peptide in human MLR [2],other results
"CC[C@H](C)[C@@H]1NC(=O)[C@H](CCC(N)=O)NC(=O)[C@H](CC(N)=O)NC(=O)[C@H](CO)NC(=O)[C@H](CC(N)=O)NC(=O)[C@@H](N)CSSC[C@@H](C(=O)O)NC1=O [cyclic CNSNQIC, CNSNQIC] (H-CNSNQIC-OH; disulfide 1-7; N-terminus and C-terminus assumed)",1.0,effective to ameliorate EAE; also recorded: inhibitor of EAE in mice,–,inhibition of human T cell activation (suppressive effect) ([2]; 3 h): 54.4%
"CNSNQIC (linear, no disulfide) [linear CNSNQIC]",1.0,–,–,–
KNSNQ,–,–,significantly higher activity,–
KNSNQI,–,–,significantly higher activity,–
NSNQI,–,–,significantly higher activity,–
YCNSNQIC,–,inhibitory activity comparable to the cyclic peptide CNSNQIC,–,"inhibitory activity in murine MLR, in words [3]: inhibitory activity comparable to the cyclic peptide CNSNQIC; inhibitory activity in human MLR / human T cell proliferation, in words ([2]; in vitro): inhibitory activity comparable to the cyclic peptide CNSNQIC"
